≈ marks a conversion by molar mass, not a printed value. Read-outs that look alike come from different tables or passages of the source.
Assays:
[1] = system: wild-type P. aeruginosa PAO1; assay: microbe, parasite or virus in culture; type: cell-based, Pseudomonas aeruginosa; conditions: for MICcombo: antibiotic with dUSTBβP 3 at 8 μg/mL; for MIC: Pseudomonas aeruginosa, read-out: MICantibiotic
Excerpt: (§1) Overnight-grown bacterial culture diluted in saline to 0.5 McFarland turbidity was successively diluted 1:50 in MHB to achieve a final concentration of 5 × 10^5 CFU/mL for inoculation. The antibiotic and adjuvant were serially diluted 2-fold along the x-axis and y-axis, respectively, resulting in varying concentrations of both agents in each well. […] Confirmation of turbidity was done using an EMax Plus microplate reader (Molecular Devices, United States) at a wavelength of 590 nm. Wells comprising MHB alone or in the presence of bacterial cells were used as negative or positive controls, respectively. Fractional inhibitory concentration index (FICI) is determined by adding the FICs of both antibiotic and adjuvant. The FIC of the antibiotic is calculated by dividing the MIC of the antibiotic in the presence of the adjuvant by the MIC of the antibiotic alone. Similarly, the FIC of the adjuvant is calculated by dividing the MIC of the adjuvant in the presence of the antibiotic by the MIC of the adjuvant alone.

[2] = system: wild-type A. baumannii ATCC 17978; assay: Checkerboard assay; type: cell-based, Acinetobacter baumannii; conditions: for MICcombo: antibiotic with dUSTBβP 3 at 8 μg/mL; for MIC: Acinetobacter baumannii, ATCC17978, 18 h, read-out: MICantibiotic
Excerpt: as §1

[3] = system: wild-type E. coli ATCC 25922; assay: microbe, parasite or virus in culture; type: cell-based, Escherichia coli; conditions: for MICcombo: antibiotic with dUSTBβP 3 at 8 μg/mL; for MIC: Escherichia coli, ATCC25922, 18 h, read-out: MICantibiotic
Experimental: The adjuvant activities of dUSTBβPs were evaluated using checkerboard assay as previously described ([Berry et al., 2019]). Overnight-grown bacterial culture diluted in saline to 0.5 McFarland turbidity was successively diluted 1:50 in MHB to achieve a final concentration of 5 × 10^5 CFU/mL for inoculation. The antibiotic and adjuvant were serially diluted 2-fold along the x-axis and y-axis, respectively, resulting in varying concentrations of both agents in each well. Subsequently, the 96-well plate was incubated with equal volumes of bacterial inoculum at 37°C for 18 h. Confirmation of turbidity was done using an EMax Plus microplate reader (Molecular Devices, United States) at a wavelength of 590 nm. Wells comprising MHB alone or in the presence of bacterial cells were used as negative or positive controls, respectively. Fractional inhibitory concentration index (FICI) is determined by adding the FICs of both antibiotic and adjuvant. The FIC of the antibiotic is calculated by dividing the MIC of the antibiotic in the presence of the adjuvant by the MIC of the antibiotic alone. Similarly, the FIC of the adjuvant is calculated by dividing the MIC of the adjuvant in the presence of the antibiotic by the MIC of the adjuvant alone. FICI ≤ 0.5, 0.5 < x ≤ 4, and >4 were deemed synergistic, additive, and antagonistic, respectively ([Meletiadis et al., 2010]).

[4] = system: MDR P. aeruginosa clinical isolates; assay: Resistance phenotype (MICs of antibiotics) of MDR clinical isolates; type: cell-based, Pseudomonas aeruginosa; conditions: Pseudomonas aeruginosa
[5] = system: MDR A. baumannii clinical isolates; assay: as above; type: cell-based, Acinetobacter baumannii; conditions: Acinetobacter baumannii, read-out: MIC
[6] = system: MDR E. coli clinical isolates; assay: as above; type: cell-based, Escherichia coli; conditions: Escherichia coli, read-out: MIC
[7] = system: MDR K. pneumoniae clinical isolates; assay: as above; type: cell-based, Klebsiella pneumoniae; conditions: Klebsiella pneumoniae
[8] = system: MDR E. cloacae clinical isolates; assay: as above; type: cell-based, Enterobacter cloacae; conditions: Enterobacter cloacae, read-out: MIC
[9] = 18 h, PAO1, antibiotic alone (Supplementary Table 7)
[10] = ATCC 17978, antibiotic alone (Supplementary Table 7)
[11] = ATCC 25922, antibiotic alone (Supplementary Table 7)

Structure (SMILES)	MICcombo ([1]; PAO1)	MIC [1, 9]	MICcombo ([2]; ATCC 17978)	MIC [2, 10]	MICcombo ([3]; ATCC 25922)	MIC [3, 11]	MIC ([4]; 259-96196, read-out: MIC)	MIC ([4]; 262-101856, read-out: MIC)	MIC ([4]; 264-104354, read-out: MIC)	MIC ([4]; 91433, read-out: MIC)	MIC ([6]; 94393 (mcr-1 +))	MIC ([6]; 94474 (mcr-1 +))	MIC [6]; 107115	MIC ([7]; 113250, read-out: MIC)	MIC ([7]; 113254, read-out: MIC)	MIC ([7]; 116381, read-out: MIC)	MIC [8]; 117029	MIC [8]; 118564	MIC [8]; 121187	MIC ([5]; LAC-4)	further results
CC(C)(O/N=C(\C(=O)N[C@@H]1C(=O)N2C(C(=O)[O-])=C(C[n+]3ccccc3)CS[C@H]12)c1csc(N)n1)C(=O)O [Ceftazidime]	2 µg/mL	2 mg/L (≈ 3.66 µM)	8 µg/mL	16 mg/L	0.063 µg/mL	0.25 mg/L	–	16 mg/L (≈ 29.3 µM)	–	–	≤ 0.25 mg/L	0.5 mg/L (≈ 0.915 µM)	> 32 mg/L	0.5 mg/L (≈ 0.915 µM)	≤ 0.2 mg/L	8 mg/L (≈ 14.6 µM)	0.5 mg/L (≈ 0.915 µM)	0.5 mg/L (≈ 0.915 µM)	0.5 mg/L (≈ 0.915 µM)	> 16 mg/L	MIC ([4]; 259-96196): 512 mg/L (≈ 937 µM); MIC ([4]; 264-104354): 128 mg/L (≈ 234 µM); MIC [4]; 91433: 1020 mg/L (≈ 1870 µM); MIC ([4]; 114228, read-out: MIC): 8 mg/L (≈ 14.6 µM)
C[C@H]1COc2c(N3CCN(C)CC3)c(F)cc3c(=O)c(C(=O)O)cn1c23 [Levofloxacin]	0.25 µg/mL	0.5 mg/L (≈ 1.38 µM)	0.25 µg/mL	0.25 mg/L	0.002 µg/mL	0.008 mg/L	256 mg/L (≈ 708 µM)	64 mg/L (≈ 177 µM)	64 mg/L (≈ 177 µM)	–	1 mg/L (≈ 2.77 µM)	32 mg/L (≈ 88.6 µM)	32 mg/L (≈ 88.6 µM)	–	–	–	–	–	–	2 mg/L (≈ 5.53 µM)	MIC [5]; 110193: ≤ 1 mg/L; MIC ([5]; AB027): 8 mg/L (≈ 22.1 µM); MIC ([5]; AB031): 0.25 mg/L (≈ 0.692 µM); MIC [7]; 113250: 0.125 mg/L (≈ 0.346 µM); MIC [7]; 113254: 0.0625 mg/L (≈ 0.173 µM); MIC [7]; 116381: 128 mg/L (≈ 354 µM)
O=C(N[C@H](CO)[C@H](O)c1ccc([N+](=O)[O-])cc1)C(Cl)Cl [Chloramphenicol]	2 µg/mL	32 mg/L (≈ 99 µM)	64 µg/mL	128 mg/L	1 µg/mL	2 mg/L	–	2050 mg/L (≈ 6340 µM)	4100 mg/L (≈ 12700 µM)	8 mg/L (≈ 24.8 µM)	4 mg/L (≈ 12.4 µM)	4 mg/L (≈ 12.4 µM)	512 mg/L (≈ 1580 µM)	4 mg/L (≈ 12.4 µM)	2 mg/L (≈ 6.19 µM)	> 512 mg/L	8 mg/L (≈ 24.8 µM)	–	–	32 mg/L (≈ 99 µM)	MIC ([4]; 259-96196): 1020 mg/L (≈ 3170 µM); MIC [5]; 110193: 128 mg/L (≈ 396 µM); MIC ([5]; AB027): 128 mg/L (≈ 396 µM); MIC ([5]; AB031): 128 mg/L (≈ 396 µM)
C[C@H]1[C@H](NC(=O)/C(=N\OC(C)(C)C(=O)O)c2csc(N)n2)C(=O)N1S(=O)(=O)O [Aztreonam]	4 µg/mL	4 mg/L (≈ 9.19 µM)	32 µg/mL	64 mg/L	0.063 µg/mL	0.25 mg/L	32 mg/L (≈ 73.5 µM)	32 mg/L (≈ 73.5 µM)	64 mg/L (≈ 147 µM)	–	≤ 0.12 mg/L	≤ 0.12 mg/L	> 64 mg/L	≤ 0.12 mg/L	≤ 0.12 mg/L	16 mg/L (≈ 36.7 µM)	≤ 0.12 mg/L	≤ 0.12 mg/L	≤ 0.12 mg/L	–	MIC ([4]; 114228, read-out: MIC): 32 mg/L (≈ 73.5 µM)
CC(=O)NC[C@H]1CN(c2ccc(N3CCOCC3)c(F)c2)C(=O)O1 [Linezolid]	256 µg/mL	1020 mg/L (≈ 3040 µM)	64 µg/mL	512 mg/L	16 µg/mL	256 mg/L	–	–	–	–	–	–	–	–	–	–	–	–	–	–	–
CN[C@H](CC(C)C)C(=O)N[C@H]1C(=O)N[C@@H](CC(N)=O)C(=O)N[C@H]2C(=O)N[C@H]3C(=O)N[C@H](C(=O)N[C@H](C(=O)O)c4cc(O)cc(O)c4-c4cc3ccc4O)[C@H](O)c3ccc(c(Cl)c3)Oc3cc2cc(c3O[C@@H]2O[C@H](CO)[C@@H](O)[C@H](O)[C@H]2O[C@H]2C[C@](C)(N)[C@H](O)[C@H](C)O2)Oc2ccc(cc2Cl)[C@H]1O [Vancomycin]	256 µg/mL	–	32 µg/mL	–	64 µg/mL	–	–	–	–	–	–	–	–	–	–	–	–	–	–	–	MIC ([1]; PAO1, 18 h): 256 mg/L (≈ 177 µM); MIC [2]: > 128 mg/L; MIC [3]: 128 mg/L

Now from value to compound, other results behind:

MICcombo ([1]; PAO1)	MIC [1, 9]	MICcombo ([2]; ATCC 17978)	MIC [2, 10]	MICcombo ([3]; ATCC 25922)	MIC [3, 11]	MIC ([4]; 259-96196, read-out: MIC)	MIC ([4]; 262-101856, read-out: MIC)	MIC ([4]; 264-104354, read-out: MIC)	MIC ([4]; 91433, read-out: MIC)	MIC ([6]; 94393 (mcr-1 +))	MIC ([6]; 94474 (mcr-1 +))	MIC [6]; 107115	MIC ([7]; 113250, read-out: MIC)	MIC ([7]; 113254, read-out: MIC)	MIC ([7]; 116381, read-out: MIC)	MIC [8]; 117029	MIC [8]; 118564	MIC [8]; 121187	Structure (SMILES)	MIC ([5]; LAC-4)	further results
2 µg/mL	2 mg/L (≈ 4.19 µM)	> 1 µg/mL	> 1 mg/L	1 µg/mL	2 mg/L	> 32 mg/L	> 32 mg/L	> 32 mg/L	32 mg/L (≈ 67 µM)	≤ 0.5 mg/L	16 mg/L (≈ 33.5 µM)	> 32 mg/L	≤ 0.5 mg/L	≤ 0.5 mg/L	≤ 0.5 mg/L	≤ 0.5 mg/L	1 mg/L (≈ 2.09 µM)	> 32 mg/L	CNC(C)C1CCC(N)C(OC2C(N)CC(N)C(OC3OCC(C)(O)C(NC)C3O)C2O)O1 (stereo not shown) [Gentamicin]	> 4 mg/L	MIC ([5]; AB027): 32 mg/L (≈ 67 µM); MIC ([5]; AB031): < 0.5 mg/L
0.5 µg/mL	2 mg/L (≈ 4.98 µM)	> 0.125 µg/mL	> 0.125 mg/L	0.001 µg/mL	0.016 mg/L	> 16 mg/L	> 16 mg/L	> 16 mg/L	16 mg/L (≈ 39.9 µM)	1 mg/L (≈ 2.49 µM)	16 mg/L (≈ 39.9 µM)	16 mg/L (≈ 39.9 µM)	≤ 0.06 mg/L	≤ 0.06 mg/L	> 16 mg/L	≤ 0.06 mg/L	0.12 mg/L (≈ 0.299 µM)	1 mg/L (≈ 2.49 µM)	COc1c(N2C[C@@H]3CCCN[C@@H]3C2)c(F)cc2c(=O)c(C(=O)O)cn(C3CC3)c12 [Moxifloxacin]	–	MIC [5]; 110193: ≤ 1 mg/L; MIC ([5]; AB027): 8 mg/L (≈ 19.9 µM); MIC ([5]; AB031): 0.12 mg/L (≈ 0.299 µM)
0.5 µg/mL	8 mg/L (≈ 18 µM)	0.25 µg/mL	0.25 mg/L	0.25 µg/mL	1 mg/L	32 mg/L (≈ 72 µM)	1020 mg/L (≈ 2300 µM)	64 mg/L (≈ 144 µM)	32 mg/L (≈ 72 µM)	4 mg/L (≈ 9 µM)	> 32 mg/L	> 32 mg/L	2 mg/L (≈ 4.5 µM)	128 mg/L (≈ 288 µM)	1 mg/L (≈ 2.25 µM)	> 32 mg/L	4 mg/L (≈ 9 µM)	> 32 mg/L	C[C@H]1c2cccc(O)c2C(=O)C2=C(O)[C@]3(O)C(=O)C(C(N)=O)=C(O)[C@@H](N(C)C)[C@@H]3[C@@H](O)[C@@H]21 [Doxycycline]	< 4 mg/L	MIC ([4]; 114228, read-out: MIC): 16 mg/L (≈ 36 µM)
128 µg/mL	2050 mg/L (≈ 4820 µM)	64 µg/mL	512 mg/L	4 µg/mL	64 mg/L	–	–	–	–	–	–	–	–	–	–	–	–	–	CCC[C@@H]1C[C@@H](C(=O)N[C@@H]([C@H]2O[C@H](SC)[C@H](O)[C@@H](O)[C@H]2O)[C@H](C)Cl)N(C)C1 [Clindamycin]	–	–
256 µg/mL	1020 mg/L (≈ 2710 µM)	4 µg/mL	256 mg/L	0.5 µg/mL	64 mg/L	–	–	–	–	–	–	–	–	–	–	–	–	–	C=C[C@]1(C)C[C@@H](OC(=O)CO)[C@]2(C)[C@H](C)CC[C@]3(CCC(=O)[C@H]32)[C@@H](C)[C@@H]1O [Pleuromutilin]	–	–
4 µg/mL	4 mg/L (≈ 7.73 µM)	32 µg/mL	> 128 mg/L	0.125 µg/mL	2 mg/L	–	–	–	–	–	–	–	–	–	–	–	–	–	CCN1CCN(C(=O)N[C@@H](C(=O)N[C@@H]2C(=O)N3[C@@H]2SC(C)(C)[C@@H]3C(=O)O)c2ccccc2)C(=O)C1=O [Piperacillin]	–	–
